In patent publication US20230102554A1 (GB002, INC., priority 2019, published 2023):

How the values were obtained:
[1] = molecular target: T1, Human PDGFRα, cytoplasmic domain (GST-PDGFRα) (Homo sapiens, UniProt P16234); assay: Human PDGFRα biochemical inhibition assay (off-chip Mobility Shift Assay)
T1 construct: made in house

[2] = molecular target: T2, Human PDGFRβ, cytoplasmic domain (GST-PDGFRβ) (Homo sapiens, UniProt P09619); assay: Human PDGFRβ biochemical inhibition assay (off-chip Mobility Shift Assay)
T2 construct: made in house
Summary of the method: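 GST-tagged cytoplasmic domain (aa 557-1106) from baculovirus was incubated 1 h at room temperature with compound, CSKtide, ATP at Km and Mg²⁺ in HEPES buffer, pH 7.5. Phosphorylated and unphosphorylated peptide were separated by off-chip mobility shift, and the product ratio P/(P+S) gave percent inhibition.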

T1 sequence (P16234 550-1089 T674I): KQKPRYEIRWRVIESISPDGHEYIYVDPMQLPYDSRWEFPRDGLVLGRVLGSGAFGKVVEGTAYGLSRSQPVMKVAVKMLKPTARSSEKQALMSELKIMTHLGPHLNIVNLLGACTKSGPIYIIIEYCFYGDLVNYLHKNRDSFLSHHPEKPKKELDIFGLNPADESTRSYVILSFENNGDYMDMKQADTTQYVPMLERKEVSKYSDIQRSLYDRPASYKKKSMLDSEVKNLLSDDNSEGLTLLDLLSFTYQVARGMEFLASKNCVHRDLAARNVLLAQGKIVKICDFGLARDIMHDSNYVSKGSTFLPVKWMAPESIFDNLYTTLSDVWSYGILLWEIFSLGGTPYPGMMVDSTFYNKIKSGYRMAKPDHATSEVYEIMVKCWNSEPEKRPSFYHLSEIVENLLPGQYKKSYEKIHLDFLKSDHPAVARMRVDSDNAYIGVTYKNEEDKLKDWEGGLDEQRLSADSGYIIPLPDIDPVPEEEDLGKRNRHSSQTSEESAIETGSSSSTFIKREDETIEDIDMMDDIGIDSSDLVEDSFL
T2 sequence (P09619 with tags, fused parts or gaps): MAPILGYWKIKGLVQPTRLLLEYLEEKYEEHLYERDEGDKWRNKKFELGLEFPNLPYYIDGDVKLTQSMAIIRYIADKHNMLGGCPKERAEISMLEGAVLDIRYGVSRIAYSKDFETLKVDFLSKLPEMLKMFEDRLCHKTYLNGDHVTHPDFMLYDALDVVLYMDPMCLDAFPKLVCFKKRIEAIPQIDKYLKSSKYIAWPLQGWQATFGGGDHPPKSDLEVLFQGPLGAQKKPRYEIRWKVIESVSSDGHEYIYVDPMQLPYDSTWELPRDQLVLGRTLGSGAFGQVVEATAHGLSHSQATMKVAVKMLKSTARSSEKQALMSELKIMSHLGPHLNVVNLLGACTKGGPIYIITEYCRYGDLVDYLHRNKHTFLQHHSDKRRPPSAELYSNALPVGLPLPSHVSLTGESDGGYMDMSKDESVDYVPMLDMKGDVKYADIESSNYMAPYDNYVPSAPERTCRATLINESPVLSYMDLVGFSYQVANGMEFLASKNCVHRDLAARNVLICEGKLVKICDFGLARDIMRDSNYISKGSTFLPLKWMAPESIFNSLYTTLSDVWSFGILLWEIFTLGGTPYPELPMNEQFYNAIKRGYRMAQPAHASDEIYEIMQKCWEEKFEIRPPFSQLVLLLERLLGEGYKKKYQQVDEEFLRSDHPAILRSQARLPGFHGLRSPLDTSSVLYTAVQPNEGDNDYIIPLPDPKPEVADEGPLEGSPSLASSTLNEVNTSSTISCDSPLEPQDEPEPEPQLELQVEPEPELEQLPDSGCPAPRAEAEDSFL

IC50 [1] [nM] | IC50 [2] [nM] | SMILES
≥ 1000 | ≥ 1000 | CCn1cc2ncc(N[C@@H](C)c3cccc(NC(=O)c4ccc(C)o4)c3)nc2n1 [Compound 369, (S)-N-(3-(1-((2-ethyl-2H-pyrazolo[3,4-b]pyrazin-6-yl)amino)ethyl)phenyl)-5-methylfuran-2-carboxamide]
< 300 | < 300 | Cc1cncc(C(=O)Nc2cccc([C@H](C)Nc3cnc4cnn(-c5cnn(C)c5)c4n3)c2)c1 [Compound 186, (S)-5-methyl-N-(3-(1-((1-(1-methyl-1H-pyrazol-4-yl)-1H-pyrazolo[3,4-b]pyrazin-6-yl)amino)ethyl)phenyl) nicotinamide]
< 300 | < 300 | CC(C)c1cc(C(=O)Nc2cccc([C@H](C)Nc3cnc4cnn(C)c4n3)c2)no1 [Compound 142, (S)-5-isopropyl-N-(3-(1-((1-methyl-1H-pyrazolo[3,4-b]pyrazin-6-yl)amino)ethyl)phenyl)isoxazole-3-carboxamide]
< 300 | < 300 | C[C@H](Nc1cnc2cnn(C)c2n1)c1cccc(NC(=O)c2ccc3c(c2)OCCO3)c1 [Compound 68, (S)-N-(3-(1-((1-methyl-1H-pyrazolo[3,4-b]pyrazin-6-yl)amino)ethyl)phenyl)-2,3-dihydrobenzo[b][1,4]dioxine-6-carboxamide]
< 300 | < 300 | COc1cc(C(=O)Nc2cccc([C@H](C)Nc3cnc4cnn(C)c4n3)c2)cnc1C [Compound 252, (S)-5-methoxy-6-methyl-N-(3-(1-((1-methyl-1H-pyrazolo[3,4-b]pyrazin-6-yl)amino)ethyl)phenyl)nicotinamide]
< 300 | < 300 | CCn1cc2ncc(N[C@@H](C)c3cc(NC(=O)Cc4ccc5c(n4)CCC5)ccc3C)nc2n1 [Compound 719, (S)-2-(6,7-dihydro-5H-cyclopenta[b]pyridin-2-yl)-N-(3-(1-((2-ethyl-2H-pyrazolo[3,4-b]pyrazin-6-yl)amino)ethyl)-4-methylphenyl)acetamide]
< 300 | < 300 | CCn1cc2ncc(N[C@@H](C)c3cccc(NC(=O)Cc4cc(F)cc(Cl)c4)c3)nc2n1 [Compound 641, (S)-2-(3-chloro-5-fluorophenyl)-N-(3-(1-((2-ethyl-2H-pyrazolo[3,4-b]pyrazin-6-yl)amino)ethyl)phenyl)acetamide]
< 300 | 300 to 1000 | CCn1cc2ncc(N[C@@H](C)c3cccc(NC(=O)c4ccn(C(C)C)n4)c3)nc2n1 [Compound 305, (S)-N-(3-(1-((2-ethyl-2H-pyrazolo[3,4-b]pyrazin-6-yl)amino)ethyl)phenyl)-1-isopropyl-1H-pyrazole-3-carboxamide]
< 300 | < 300 | Cc1c[nH]c2ncc(N[C@@H](C)c3cccc(NC(=O)c4ccc(C(F)(F)F)nc4)c3)nc12 [Compound 557, (S)-N-(3-(1-((7-methyl-5H-pyrrolo[2,3-b]pyrazin-2-yl)amino)ethyl)phenyl)-6-(trifluoromethyl)nicotinamide]
< 300 | 300 to 1000 | Cc1c[nH]c2ncc(N[C@@H](C)c3cccc(NC(=O)c4cc(C(F)(F)F)n(C)n4)c3)nc12 [Compound 567, (S)-1-methyl-N-(3-(1-((7-methyl-5H-pyrrolo[2,3-b]pyrazin-2-yl)amino)ethyl)phenyl)-5-(trifluoromethyl)-1H-pyrazole-3-carboxamide]
< 300 | 300 to 1000 | CCn1cc2ncc(N[C@@H](C)c3cccc(NC(=O)Nc4cnn(C(C)C)c4)c3)nc2n1 [Compound 733, (S)-1-(3-(1-((2-ethyl-2H-pyrazolo[3,4-b]pyrazin-6-yl)amino)ethyl)phenyl)-3-(1-isopropyl-1H-pyrazol-4-yl)urea]
≥ 1000 | ≥ 1000 | CCn1cc2ncc(N[C@@H](C)c3cccc(NC(=O)c4ccoc4)c3)nc2n1 [Compound 368, (S)-N-(3-(1-((2-ethyl-2H-pyrazolo[3,4-b]pyrazin-6-yl)amino)ethyl)phenyl)furan-3-carboxamide]
